Experimental data: patent publication US10782295B2, “Cysteine-reactive ligand discovery in proteomes” (THE SCRIPPS RESEARCH INSTITUTE, priority 2013, dated 2020)

What was measured:
MACROD1 = target: T1, MACROD1 (Homo sapiens, UniProt Q9BQ69); experiment: competitive isoTOP-ABPP, MDA-MB-231 soluble proteome; assay type: binding; conditions: 100 μM LDE, 60 min; peptide LEVDAIVNAANSSLLGGGGVDGC*IHR
T1 construct: directly in native proteomes; endogenous in cells; host or cells: MDA-MB-231
T1 sequence (Q9BQ69 1-325): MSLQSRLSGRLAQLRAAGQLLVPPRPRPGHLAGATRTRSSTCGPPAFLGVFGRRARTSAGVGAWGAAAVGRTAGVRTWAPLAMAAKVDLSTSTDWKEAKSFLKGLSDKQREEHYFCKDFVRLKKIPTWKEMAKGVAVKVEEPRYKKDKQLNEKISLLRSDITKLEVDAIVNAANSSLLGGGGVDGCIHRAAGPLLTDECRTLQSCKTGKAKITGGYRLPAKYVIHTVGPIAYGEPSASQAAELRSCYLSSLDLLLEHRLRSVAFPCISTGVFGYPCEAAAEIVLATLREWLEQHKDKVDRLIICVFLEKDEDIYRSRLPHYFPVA

CCT8 = target: T2, CCT8 (Homo sapiens, UniProt P50990); experiment: as above; assay type: binding; conditions: 100 μM LDE, 60 min; peptide IAVYSC*PFDGMITETK
T2 construct: directly in native proteomes; endogenous in cells; host or cells: MDA-MB-231
T2 sequence (P50990 1-548): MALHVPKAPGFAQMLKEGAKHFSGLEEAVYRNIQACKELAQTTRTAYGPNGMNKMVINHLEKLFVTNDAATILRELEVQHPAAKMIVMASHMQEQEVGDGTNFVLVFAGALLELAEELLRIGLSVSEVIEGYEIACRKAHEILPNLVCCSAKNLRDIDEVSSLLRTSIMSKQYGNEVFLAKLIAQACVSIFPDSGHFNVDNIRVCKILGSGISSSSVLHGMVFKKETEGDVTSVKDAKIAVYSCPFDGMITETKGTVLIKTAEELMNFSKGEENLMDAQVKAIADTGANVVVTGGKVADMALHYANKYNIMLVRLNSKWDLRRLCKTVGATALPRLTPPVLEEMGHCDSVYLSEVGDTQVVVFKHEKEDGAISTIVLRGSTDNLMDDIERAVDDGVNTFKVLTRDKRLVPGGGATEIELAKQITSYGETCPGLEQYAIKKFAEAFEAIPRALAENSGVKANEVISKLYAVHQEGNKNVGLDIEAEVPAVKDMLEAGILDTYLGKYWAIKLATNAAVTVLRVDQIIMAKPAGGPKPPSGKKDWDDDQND

SMILES	R value (isoTOP-ABPP ratio heavy/light) for IA-labeled cysteine of MACROD1 (MACROD1)	R value (isoTOP-ABPP ratio heavy/light) for IA-labeled cysteine of CCT8 (CCT8)
CCCCCCCCCCCCC/C=C/C=O [2-HD, 2-trans-hexadecenal]	1.02	1.06
CCCCCC(O)/C=C/C=O (stereo not drawn) [4-HNE, 4-Hydroxynonenal]	1.56	1.14
CCCCC/C=C/C=C1/C(=O)C=C[C@@H]1C/C=C\CCCC(=O)O [PGJ2, 15-deoxy-Δ12,14-prostaglandin J2]	7.65	7.75
